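Briefly, cells in 96-well plates were exposed to five compound concentrations for 48 h, and endpoints were estimated by linear interpolation. GI50 is the concentration that inhibits growth by half. Definition used: TGI = concentration required for complete inhibition of growth.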
Assays:
Assay in all cases: inhibition of tumour cell growth, NCI panel, 48 h
SF-268 CNS = system: SF-268 CNS
SK-MEL-2 melanoma = system: SK-MEL-2 melanoma
DLD-1 colon = system: DLD-1 colon
HOP-18 NSCLC = system: HOP-18 NSCLC
HL-60(TB) leukemia = system: HL-60(TB) leukemia
UO-31 renal = system: UO-31 renal
A498 renal = system: A498 renal
CAKI-1 renal = system: CAKI-1 renal
HCC-2998 colon = system: HCC-2998 colon
SNB-75 CNS = system: SNB-75 CNS
NCI-H23 lung = system: NCI-H23 lung
LXFL 529 NSCLC = system: LXFL 529 NSCLC
U251 CNS = system: U251 CNS
SK-OV-3 ovarian = system: SK-OV-3 ovarian
NCI-H226 lung = system: NCI-H226 lung
MCF7 breast = system: MCF7 breast
KM12 colon = system: KM12 colon
SF-295 CNS = system: SF-295 CNS

SMILES: O=C1C=CC=C[C@@H]2C(C3OCCO3)CC[C@H]12.[C-]#[O+].[C-]#[O+].[C-]#[O+].[Fe] (stereo not given in full)
- GI50 (SF-268 CNS): > 60 µM
- TGI (SF-268 CNS): > 100 µM
- GI50 (SK-MEL-2 melanoma): > 71.1 µM
- TGI (SK-MEL-2 melanoma): > 100 µM
- GI50 (DLD-1 colon): 19.8 µM
- TGI (DLD-1 colon): 45 µM
- GI50 (HOP-18 NSCLC): > 52.8 µM
- TGI (HOP-18 NSCLC): > 85.1 µM
- TGI (HL-60(TB) leukemia): > 100 µM
- GI50 (UO-31 renal): 42.7 µM
- TGI (UO-31 renal): > 78.4 µM
- GI50 (A498 renal): > 100 µM
- TGI (A498 renal): > 100 µM
- GI50 (CAKI-1 renal): 93.3 µM
- TGI (CAKI-1 renal): > 100 µM
- GI50 (HCC-2998 colon): > 76.6 µM
- TGI (HCC-2998 colon): > 100 µM
- GI50 (SNB-75 CNS): > 100 µM
- TGI (SNB-75 CNS): > 100 µM
- GI50 (NCI-H23 lung): > 52.8 µM
- TGI (NCI-H23 lung): > 83.7 µM
- GI50 (LXFL 529 NSCLC): 15.6 µM
- TGI (LXFL 529 NSCLC): 29.4 µM
- GI50 (U251 CNS): 44.7 µM
- TGI (U251 CNS): > 82.5 µM
- GI50 (SK-OV-3 ovarian): > 96 µM
- TGI (SK-OV-3 ovarian): > 100 µM
- GI50 (NCI-H226 lung): > 83.5 µM
- TGI (NCI-H226 lung): > 100 µM
- GI50 (MCF7 breast): 37.3 µM
- TGI (MCF7 breast): > 100 µM
- GI50 (KM12 colon): 48 µM
- TGI (KM12 colon): > 100 µM
- GI50 (SF-295 CNS): 44.4 µM
- TGI (SF-295 CNS): > 100 µM

— PubChem BioAssay (NCI)
